# Columns and labels:
# Type in all cases: cell-based
# PCa cell lines = test: Growth inhibition across the PCa cell panel; details: Homo sapiens; 72 hours, range across the cell panel; read-out: IC50 values, range over PCa cell lines
# Text: Four commercial (LnCaP, 22rv1, DU145 and PC3) and twelve non-commercial (LAPC-4 [44], CWR22, PCb2 [45], PC3Lymphnode, PC3M, PC3M-pro4 [46] and PC3M-Ln4 [47], LnCaP-104S [47], LnCaP104R1 [47], LnCaP-C81 [47], C4-2B [48], VCAP [49] and DuCaP [[49]) cell lines were selected for the in vitro experimental studies for their biological characteristics: LAPC-4 (Androgen receptor [AR] positive, androgen dependent with low Akt/mTOR activities, p53 wt); LnCaP (AR positive, androgen dependent with high Akt/mTOR activities, p53 wt); LnCaP-C81 and LnCaP-C4-2B (AR positive, androgen independent with high Akt/mTOR activities, p53 wt); 22rv1 (AR positive, androgen independent with low Akt/mTOR activities, p53 wt); PC3 (AR negative, with high Akt/mTOR activities and no p53 function (p53 del) and DU145 (AR negative, with low Akt/mTOR activities and mutant p53). PC3 and DU145 have been also transfected with AR to obtain PC3AR [50] and DU-AR [51]. Benign prostatic hyperplasia line (BPH1), and Prostatic epithelial lines (EPN and RWPE-1) were used as non-neoplastic controls. Cells were routinely cultured in appropriate medium supplemented with 10 % fetal bovine serum (FBS), 1 % pen-strep and 1 % L-glutamine (Invitrogen Corporation, Carlsbad, CA). To minimize the risk to work with misidentified and/or contaminated cell lines, DNA profiling was periodically carried out in-house to authenticate cell cultures. DNA was isolated from cell lines using a standard DNA isolation kit. […]
# Cells were seeded at a density of 2 x 10^4 cells/mL in 24-well plates. […] Cells were trypsinized and resuspended in 1.0 ml of saline, then counted using a NucleoCounter™ NC-100 (automated cell counter systems, Chemotec, Gydevang, Denmark). The effect on cell proliferation was measured by taking the mean cell number with respect to controls over time for the different treatment groups.
# Viable cells were counted by using the NucleoCounter™ NC-100 (automated cell counter systems, Chemotec, Cydevang, DK). Apoptosis was evaluated by using Tali® Apoptosis Kit - Annexin V Alexa Fluor® 488 & Propidium Iodide-based, (Life Technologies Italia, Monza, Italy). Stained cells were then measured on a Tali® Image-Based Cytometer. […]
# (§1) Six SINE analogs KPT-127, KPT-185, KPT-205, KPT-227, KPT251 and KPT-330 sharing a trifluoromethyl phenyl triazole scaffold, were investigated for their growth inhibitory and apoptotic potential in our PCa cell panel. Therefore, the effects of these XPO1 inhibitors were evaluated on the growth of PCa cell lines performing dose- and time-dependent studies. To examine the dose-dependent effects of these compounds, we treated cells with varying doses of the compounds (0, 1, 10, 50, 100, 500 and 1000 nM) and assessed viability at 72 hours after treatment. The IC50 for each compound was then calculated. […]
# PCb2 = test: Growth/viability assay, IC50 at 72 h; details: Homo sapiens; PCb2, Fig. 2g
# Text: (§2) Four commercial (LnCaP, 22rv1, DU145 and PC3) and twelve non-commercial (LAPC-4 [44], CWR22, PCb2 [45], PC3Lymphnode, PC3M, PC3M-pro4 [46] and PC3M-Ln4 [47], LnCaP-104S [47], LnCaP104R1 [47], LnCaP-C81 [47], C4-2B [48], VCAP [49] and DuCaP [[49]) cell lines were selected for the in vitro experimental studies for their biological characteristics: LAPC-4 (Androgen receptor [AR] positive, androgen dependent with low Akt/mTOR activities, p53 wt); LnCaP (AR positive, androgen dependent with high Akt/mTOR activities, p53 wt); LnCaP-C81 and LnCaP-C4-2B (AR positive, androgen independent with high Akt/mTOR activities, p53 wt); 22rv1 (AR positive, androgen independent with low Akt/mTOR activities, p53 wt); PC3 (AR negative, with high Akt/mTOR activities and no p53 function (p53 del) and DU145 (AR negative, with low Akt/mTOR activities and mutant p53). PC3 and DU145 have been also transfected with AR to obtain PC3AR [50] and DU-AR [51]. Benign prostatic hyperplasia line (BPH1), and Prostatic epithelial lines (EPN and RWPE-1) were used as non-neoplastic controls. Cells were routinely cultured in appropriate medium supplemented with 10 % fetal bovine serum (FBS), 1 % pen-strep and 1 % L-glutamine (Invitrogen Corporation, Carlsbad, CA). To minimize the risk to work with misidentified and/or contaminated cell lines, DNA profiling was periodically carried out in-house to authenticate cell cultures. DNA was isolated from cell lines using a standard DNA isolation kit. STR profiling was performed by using GenePrint® 10 System (Promega Corporation, Madison, WI). An eight-capillary 3500 Genetic Analyzer (Applied Biosystems Life Technologies Europe BV, Monza, Italy) was used to separate and identify alleles using standard procedures. GenePrint® 10 System allows co-amplification and detection of […] human loci required by the guidelines ASN-0002. For non-commercial cell lines, the authentication process was carried out by comparing STR-fingerprints with those published by Adri van Bokhoven and co-workers. In addition, cell lines were stocked at very low passages and used at <15-20 subcultures.
# (§3) Cells were seeded at a density of 2 x 10^4 cells/mL in 24-well plates. Cells were left to attach and grow in 5 % FCS DMEM for 24 h. After this time, cells were maintained in the appropriate culture conditions. Morphological controls were performed every day with an inverted phase-contrast photomicroscope (Nikon Diaphot, Tokyo, Japan) before cell trypsinization and counting. Cells were trypsinized and resuspended in 1.0 ml of saline, then counted using a NucleoCounter™ NC-100 (automated cell counter systems, Chemotec, Gydevang, Denmark). The effect on cell proliferation was measured by taking the mean cell number with respect to controls over time for the different treatment groups.
# (§4) Viable cells were counted by using the NucleoCounter™ NC-100 (automated cell counter systems, Chemotec, Cydevang, DK). Apoptosis was evaluated by using Tali® Apoptosis Kit - Annexin V Alexa Fluor® 488 & Propidium Iodide-based, (Life Technologies Italia, Monza, Italy). Stained cells were then measured on a Tali® Image-Based Cytometer. Apoptosis was further confirmed by FACS analysis following the instructions of the manufacturer.
# as §1
# PC3M-Ln4 = test: Growth/viability assay, IC50 at 72 h; details: Homo sapiens; PC3M-Ln4, Fig. 2g
# Text: as §2, §3, §4, §1
# BPH-1 = test: Growth/viability assay, IC50 at 72 h; details: Homo sapiens
# Text: as §2, §3, §4, §1
# PC3M-pro4 = test: Growth/viability assay, IC50 at 72 h; details: Homo sapiens; PC3M-pro4, Fig. 2g
# Text: as §2, §3, §4, §1
# EPN = test: Growth/viability assay, IC50 at 72 h; details: Homo sapiens, Fig. 2g
# Text: as §2, §3, §4, §1
# CWR22 = test: Growth/viability assay, IC50 at 72 h; details: Homo sapiens; CWR22, Fig. 2g
# Text: as §2, §3, §4, §1
# DuCaP = test: Growth/viability assay, IC50 at 72 h; details: Homo sapiens, Fig. 2g
# Text: as §2, §3, §4, §1
# DU145 = test: Growth/viability assay, IC50 at 72 h; details: Homo sapiens, DU-145; DU145, Fig. 2g
# Text: as §2, §3, §4, §1
# RWPE-1 = test: Growth/viability assay, IC50 at 72 h; details: Homo sapiens; RWPE-1, Fig. 2g
# Text: as §2, §3, §4, §1
# C4-2B = test: Growth/viability assay, IC50 at 72 h; details: Homo sapiens, Fig. 2g
# Text: as §2, §3, §4, §1
# LnCaP104R1 = test: Growth/viability assay, IC50 at 72 h; details: Homo sapiens; 104R1, Fig. 2g
# Text: as §2, §3, §4, §1
# PC3 = test: Growth/viability assay, IC50 at 72 h; details: Homo sapiens, PC-3
# Text: as §2, §3, §4, §1
# 22rv1 = test: Growth/viability assay, IC50 at 72 h; details: Homo sapiens
# Text: as §2, §3, §4, §1
# LAPC-4 = test: Growth/viability assay, IC50 at 72 h; details: Homo sapiens
# Text: as §2, §3, §4, §1
# LnCaP = test: Growth/viability assay, IC50 at 72 h; details: Homo sapiens
# Text: as §2, §3, §4, §1
# DU-AR = test: Growth/viability assay, IC50 at 72 h; details: Homo sapiens, Fig. 2g
# Text: as §2, §3, §4, §1
# VCaP = test: Growth/viability assay, IC50 at 72 h; details: Homo sapiens, Fig. 2g
# Text: as §2, §3, §4, §1
# PC3AR = test: Growth/viability assay, IC50 at 72 h; details: Homo sapiens, PC3/AR, Fig. 2g
# Text: as §2, §3, §4, §1
# LnCaP-C81 = test: Growth/viability assay, IC50 at 72 h; details: Homo sapiens; C-81, Fig. 2g
# Text: as §2, §3, §4, §1
# LnCaP-104S = test: Growth/viability assay, IC50 at 72 h; details: Homo sapiens, Fig. 2g
# Text: as §2, §3, §4, §1
SMILES,IC50 (PCb2) [nM],IC50 (PC3M-Ln4) [nM],"IC50 (BPH-1; BPH-1, BPH1, Fig. 2g) [nM]","IC50 (BPH-1; BPH-1, 72 hours, Fig. 2a-f) [nM]",IC50 (PC3M-pro4) [nM],IC50 (EPN) [nM],IC50 (CWR22) [nM],IC50 (DuCaP) [nM],IC50 (DU145) [nM],IC50 (RWPE-1) [nM],IC50 (C4-2B) [nM],IC50 (LnCaP104R1) [nM],"IC50 (PC3; PC3, 72 hours, Fig. 2a-f) [nM]","IC50 (PC3; PC3, Fig. 2g) [nM]","IC50 (22rv1; 22rv1, 72 hours, Fig. 2a-f) [nM]","IC50 (22rv1; 22rv1, Fig. 2g) [nM]","IC50 (LAPC-4; LAPC4, LAPC-4, Fig. 2g) [nM]","IC50 (LAPC-4; LAPC4, 72 hours, Fig. 2a-f) [nM]","IC50 (LnCaP; 72 hours, Fig. 2a-f) [nM]",IC50 (LnCaP; Fig. 2g) [nM],also measured
CC(C)OC(=O)/C=C\n1cnc(-c2cccc(Cl)c2)n1 [KPT-127],44,55,> 1000,> 1000,90,800,160,100,55,1000,25,30,59 ± 3,59,100 ± 10,100,201,201 ± 15,43 ± 4,43,IC50 (PCa cell lines): 43 to 201 nM; IC50 (DU-AR): 47 nM; IC50 (VCaP): 100 nM; IC50 (PC3AR): 62 nM; IC50 (LnCaP-C81): 20 nM; IC50 (LnCaP-104S): 50 nM
COc1cc(-c2ncn(/C=C\C(=O)OC(C)C)n2)cc(C(F)(F)F)c1 [KPT-185],215,200,> 1000,> 1000,330,1000,230,270,177,1000,179,260,207 ± 44,207,189 ± 84,160,321,321 ± 105,268 ± 34,268,IC50 (PCa cell lines): 180 to 700 nM; IC50 (DU-AR): 143 nM; IC50 (VCaP): 400 nM; IC50 (PC3AR): 233 nM; IC50 (LnCaP-C81): 200 nM; IC50 (LnCaP-104S): 240 nM
CC(C)OC(=O)/C=C\n1cnc(-c2cc(OC(C)C)cc(C(F)(F)F)c2)n1 [KPT-207],67,60,> 1000,> 1000,125,750,133,120,90,820,144,100,74 ± 5,74,78 ± 19,78,115,101 ± 1,113 ± 12,301,IC50 (DU-AR): 65 nM; IC50 (VCaP): 130 nM; IC50 (PC3AR): 80 nM; IC50 (LnCaP-C81): 160 nM; IC50 (LnCaP-104S): 80 nM
COc1cc(-c2ncn(/C=C\c3nnco3)n2)cc(C(F)(F)F)c1 [KPT-225],160,80,> 1000,> 1000,180,1000,180,180,135,1000,170,160,122 ± 5,122,204 ± 44,204,223,223 ± 31,171 ± 30,171,IC50 (DU-AR): 112 nM; IC50 (VCaP): 240 nM; IC50 (PC3AR): 144 nM; IC50 (LnCaP-C81): 180 nM; IC50 (LnCaP-104S): 120 nM
